Assay results taken from patent US7232929B2, “Amide derivatives of 2,2,3,3-tetramethylcyclopropane carboxylic acid” (Yissum Research Development Company of the Hebrew …, priority 2003, dated 2007).
Like-named read-outs stand apart in the source and are kept apart here.

Experiments:
[1] = tested on: mouse model; details: cited from earlier work
[2] = tested on: electrically induced convulsions (MES) in rats; details: literature comparison; cited from earlier work
[3] = tested on: animal models of epilepsy; details: cited from earlier work
[4] = tested on: electrically induced convulsions (MES) in mice; details: literature comparison; cited from earlier work
[5] = tested on: rats; assay: neurotoxicity, gait and stance test, rats, po; details: for protective index or safety of margin TD50/ED50: TD50 / MES ED50
Procedure: (§2) Neurotoxicity of the claimed agents was assessed in mice (ip. administration) in the rotorod ataxia test and in rats (po. administration) in the gait and stance test which assesses minimal neurotoxicity. The term qauntitating the neurotoxicity is the median neurological toxic dose (TD50).
The protective index (PI) is defined as the ratio of TD50 and ED50 (PI=TD50/ED50). The PI is used to show a useful separation between neurotoxicity and antiepileptic activity. The larger the PI, the better the separation between neurotoxicity and efficacious doses.

[6] = tested on: chemically induced convulsions (scMet) in rats; details: literature comparison, inactive at 250 mg/kg; cited from earlier work
[7] = tested on: rats; details: comparison values; cited from earlier work
[8] = tested on: electrically induced convulsions (MES) in rats; assay: maximal electroshock seizure test (MES), rats, oral; type: in vivo, rat; details: for ED50: Rattus norvegicus, oral administration, read-out: ED50 (median effective dose) in the MES model; for N/F (fraction of rats responded): MES
Text: (§1) The first model, the maximal electroshock seizure test (MES), is used to show efficacy for antiepileptic agents against partial and generalized seizure type epilepsy, the common epilepsy among therapy resistant epileptic patients. The second model, the subcutaneous metrazole test (scMet) measures seizure threshold and is a standard screening procedure to show efficacy for agents against seizure threshold and absence seizures.

[9] = tested on: electrically induced convulsions (MES) in mice; assay: maximal electroshock seizure test (MES), mice, ip; type: in vivo; details: Mus musculus, ip administration, read-out: ED50 in the MES model
Text: as §1

[10] = tested on: chemically induced convulsions (scMet) in mice; assay: subcutaneous metrazole test (scMet), mice, ip; type: in vivo; details: Mus musculus, read-out: ED50 in the scMet model
Text: as §1

[11] = tested on: chemically induced convulsions (scMet) in rats; assay: subcutaneous metrazole test (scMet), rats, oral; type: in vivo, rat; details: for ED50: Rattus norvegicus, po, read-out: ED50 in the scMet model; for N/F (fraction of rats responded): scMET
Text: as §1

[12] = tested on: tactile allodynia in SNL rats; assay: rat spinal nerve ligation (SNL) model for neuropathic pain, von Frey filaments; type: in vivo
Procedure: Experiments were performed on male Sprague-Dawley rats (Harlan laboratories, Jerusalem, Israel) weighing 175–200 g. The mechanical sensitivity (tactile allodynia) of the foot was quantified by the occurrence of foot withdrawal in response to normally innocuous mechanical stimuli using nine different von Frey filaments (VFF) ranging from 0.6 to 26 g. The rats were placed on a metal mesh floor covered with a transparent plastic dome and a period of acclimatization was allowed prior to testing. VFF were applied from underneath the mesh floor to the plantar surface of the foot. Each trial consisted of repeated applications of each of the VFFs in an ascending order for 5 times, each for a period of 1 s. If the rat withdrew the foot at least 3 times out of 5 at a specific VFF no further ascending filaments were tested and this filament was considered as a withdrawal threshold (response). Mechanical stimulus trials with the series of ascending VFF were repeated 2 times for a given time point. The repeated measurements were averaged and taken as the paw withdrawal threshold on a given time point.
For drug testing, the effect on neuropathic pain was measured 5–6 days following operation. Rats responding to mechanical stimuli of 10 g or less (in the operated leg) were eligible for the study.
The procedure of ligation and cut of the spinal nerves for induction of neuropathic pain was performed as previously described by Sheen and Chung (Sheen, K. and Chung, J. M., Signs of neuropathic pain depend on signals from injured nerve fibers in a rat model, Brain Research 610: 62–68 (1993)). Briefly, under ketamine-xylazine anaesthesia rats were placed in a prone position and the left paraspinal muscles were separated from spinous processes at the L4-S2 level. Part of the L6 transverse process was removed and the L4–L6 spinal nerves were identified. The L5–L6 spinal nerves were isolated and tightly ligated and cut, distal to the dorsal root ganglion and proximal to the formation of the sciatic nerve. Following complete […] the wound was sutured.
For all the studies, appropriate amounts of the tested compound were suspended in 0.5% methylcellulose to a volume of 4 mL/kg body weight. TMC-Urea and methylcellulose (MC, vehicle) were administered intraperitoneally (i.p) to rats at postoperative days 7, 14 and 21 in a double blind randomized crossover manner.
Rats that obtained threshold of 15 g and above, back to pre-operation baseline, were regarded free of tactile allodynia.
Median effective dose (ED50) and its 95% confidence intervals were calculated using the pharmacodynamic software package WinNonlin, version 4.0.1 (SCI Software, Lexington, Ky., U.S.A.).
Threshold data from VFF testing are presented as actual threshold (absolute) in grams and as percent of absolute responders.
For statistical analyses the nonparametric two-tailed Mann-Whitney U was used. A p value less than 0.05 was considered significant.

[13] = neurotoxicity, rotorod ataxia test, mice, ip; details: mouse, in vivo
Procedure: as §2

Compound: CC1(C)C(C(N)=O)C1(C)C [tetramethylcyclopropane carboxamide]
- teratogenicity ([1]; mouse model): not teratogenic

Compound: CNC(=O)C1C(C)(C)C1(C)C [M-TMCD, N-methyl 2,2,3,3-tetramethylcyclopropane carboxamide]
- ED50 in rat-MES [2]: 82 mg/kg
- anticonvulsant potency relative to VPA [3]: approximately 10 times
- teratogenicity ([1]; mouse, in vivo): not teratogenic
- ED50 in mice-MES [4]: 99 mg/kg
- protective index or safety of margin TD50/ED50 [5]: 2

Compound: CC1(C)C(C(=O)NCC(N)=O)C1(C)C [TMC glycinamide, N-2,2,3,3-tetramethylcyclopropyl carbonyl-glycinamide]
- ED50 in rat-MES [2]: 82 mg/kg
- ED50 in mice-MES [4]: 173 mg/kg
- protective index or safety of margin TD50/ED50 [5]: > 6.1
- ED50 in the scMet model [6]: > 250 mg/kg
- TD50 (median neurological toxic dose) [7]: above 500 mg/kg

Compound: CN(C)C(=O)NC(=O)C1C(C)(C)C1(C)C [II, 1,1-N,N-dimethyl-2,2,3,3-tetramethylcyclopropanecarbonyl urea]
- neurotoxicity ([5]; oral, doses up to 500 mg/kg): no neurotoxicity
- ED50 [8]: 87 mg/kg

Compound: CC1(C)C(C(=O)NC(N)=O)C1(C)C [Compound I, N-2,2,3,3-tetramethylcyclopropanecarbonyl urea]
- ED50 [9]: 90 mg/kg
- ED50 [10]: 125 mg/kg
- ED50 [11]: 91.8 mg/kg
- N/F (fraction of rats responded) ([11]; dose 25 mg/kg): 1/8
- N/F (fraction of rats responded) ([11]; dose 50 mg/kg): 3/8
- N/F (fraction of rats responded) ([11]; dose 100 mg/kg): 3/8
- N/F (fraction of rats responded) ([11]; dose 200 mg/kg): 6/8
- N/F (fraction of rats responded) ([11]; dose 400 mg/kg): 8/8
- Allodynic response, Total responders ([12]; 20 mg/kg ip): 0/9
- Allodynic response (number of rats responded/total number of rats) ([12]; 20 mg/kg ip, 30 min): 0/9
- Allodynic response (number of rats responded/total number of rats) ([12]; 20 mg/kg ip, 60 min): 0/9
- Allodynic response (number of rats responded/total number of rats) ([12]; 20 mg/kg ip, 120 min): 0/9
- Allodynic response (number of rats responded/total number of rats) ([12]; 20 mg/kg ip, 180 min): 0/9
- Allodynic response (number of rats responded/total number of rats) ([12]; 20 mg/kg ip, 240 min): 0/9
- Allodynic response, Total responders ([12]; 60 mg/kg ip): 0/9
- Allodynic response (number of rats responded/total number of rats) ([12]; 60 mg/kg ip, 30 min): 0/9
- Allodynic response (number of rats responded/total number of rats) ([12]; 60 mg/kg ip, 60 min): 0/9
- Allodynic response (number of rats responded/total number of rats) ([12]; 60 mg/kg ip, 120 min): 0/9
- Allodynic response (number of rats responded/total number of rats) ([12]; 60 mg/kg ip, 180 min): 0/9
- Allodynic response (number of rats responded/total number of rats) ([12]; 60 mg/kg ip, 240 min): 0/9
- Allodynic response, Total responders ([12]; 120 mg/kg ip): 3/9
- Allodynic response (number of rats responded/total number of rats) ([12]; 120 mg/kg ip, 30 min): 0/9
- Allodynic response (number of rats responded/total number of rats) ([12]; 120 mg/kg ip, 60 min): 1/9
- Allodynic response (number of rats responded/total number of rats) ([12]; 120 mg/kg ip, 120 min): 3/9
- Allodynic response (number of rats responded/total number of rats) ([12]; 120 mg/kg ip, 180 min): 3/9
- Allodynic response (number of rats responded/total number of rats) ([12]; 120 mg/kg ip, 240 min): 3/9
- Allodynic response, Total responders ([12]; 180 mg/kg ip): 3/7
- Allodynic response (number of rats responded/total number of rats) ([12]; 180 mg/kg ip, 30 min): 0/7
- Allodynic response (number of rats responded/total number of rats) ([12]; 180 mg/kg ip, 60 min): 1/7
- Allodynic response (number of rats responded/total number of rats) ([12]; 180 mg/kg ip, 120 min): 3/7
- Allodynic response (number of rats responded/total number of rats) ([12]; 180 mg/kg ip, 180 min): 3/7
- Allodynic response (number of rats responded/total number of rats) ([12]; 180 mg/kg ip, 240 min): 3/7
- Allodynic response, Total responders ([12]; 240 mg/kg ip): 9/10
- Allodynic response (number of rats responded/total number of rats) ([12]; 240 mg/kg ip, 30 min): 0/10
- Allodynic response (number of rats responded/total number of rats) ([12]; 240 mg/kg ip, 60 min): 2/10
- Allodynic response (number of rats responded/total number of rats) ([12]; 240 mg/kg ip, 120 min): 8/10
- Allodynic response (number of rats responded/total number of rats) ([12]; 240 mg/kg ip, 180 min): 8/10
- Allodynic response (number of rats responded/total number of rats) ([12]; 240 mg/kg ip, 240 min): 8/10
- ED50 ([12]; Rattus norvegicus, ip, 2 h, i.p., at 120 min post-dose, read-out: ED50 (antiallodynic, rats free of tactile allodynia)): 171 mg/kg
- effect on tactile allodynia ([12]; i.p., significant reduction at 120 to 240 min at 120-240 mg/kg): decreased tactile allodynia in a dose-dependent manner
- protective index or safety of margin TD50/ED50 [5]: 18.5
- TD50 (median neurological toxic dose) ([5]; oral administration): 538 mg/kg
- N/F (fraction of rats responded) ([8]; dose 10 mg/kg): 0/8
- N/F (fraction of rats responded) ([8]; dose 20 mg/kg): 4/8
- N/F (fraction of rats responded) ([8]; dose 40 mg/kg): 5/8
- N/F (fraction of rats responded) ([8]; dose 80 mg/kg): 7/8
- ED50 [8]: 29.4 mg/kg

Compound: CONC(=O)C1C(C)(C)C1(C)C [Compound V, N-methoxy-2,2,3,3-tetramethylcyclopropane carboxamide]
- TD50 [13]: 166 mg/kg
- ED50 [9]: 115 mg/kg
- ED50 [10]: 74 mg/kg
- ED50 [11]: 35 mg/kg

Compound: CC1(C)C(C(=O)Nc2nnc(S(N)(=O)=O)s2)C1(C)C [Compound VI, 5-(2,2,3,3-tetramethylcyclopropanecarbonylamido)-1,3,4-thiadiazole-2-sulfonamide]
- ED50 [9]: 16 mg/kg
